Data from patent US11339161B2, “Triazolo pyridines as modulators of gamma-secretase” (Boehringer Ingelheim International GmbH, priority 2017, dated 2022).
Where two headings read alike, the source gives them in different places.

Key:
RET = RET (Homo sapiens, UniProt P07949); experiment: Z'-LYTE SelectScreen biochemical kinase assay RET
Text: (§1) Thermo Fisher Scientific SelectScreen™ Biochemical Kinase Profiling Service Z′-LYTE™ Screening Protocol and Assay Conditions Assay Theory
(§2) The […] biochemical assay employs a fluorescence-based, coupled-enzyme format and is based on the differential sensitivity of phosphorylated and non-phosphorylated peptides to proteolytic cleavage. The peptide substrate is labeled with two fluorophores—one at each end—that make up a FRET pair. In the primary reaction, the kinase transfers the gamma-phosphate of ATP to a single tyrosine, serine or threonine residue in a synthetic FRET-peptide. In the secondary reaction, a site-specific protease recognizes and cleaves non-phosphorylated FRET-peptides. Phosphorylation of FRET-peptides suppresses cleavage by the Development Reagent. Cleavage disrupts FRET between the donor (i.e., coumarin) and acceptor (i.e., fluorescein) fluorophores on the FRET-peptide, whereas uncleaved, phosphorylated FRET-peptides maintain FRET. A ratiometric method, which calculates the ratio (Emission Ratio=Coumarin emission (445 nm)/Fluorescein emission (520 nm)) of donor emission to acceptor emission after excitation of the donor fluorophore at 400 nm, is used to quantitate reaction progress, as shown in the equation below. A significant benefit of this ratiometric method for quantitating reaction progress is the elimination of well-to-well variations in FRET-peptide concentration and signal intensities. As a result, the assay yields very high Z′-factor values (>0.7) at a low percent phosphorylation. Both cleaved and uncleaved FRET-peptides contribute to the fluorescence signals and therefore to the Emission Ratio. The extent of phosphorylation of the FRET-peptide can be calculated from the Emission Ratio. The Emission Ratio will remain low if the FRET-peptide is phosphorylated (i.e., no kinase inhibition) and will be high if the FRET-peptide is non-phosphorylated (i.e., kinase inhibition).
(§3) The Test Compounds are screened in 1% DMSO (final) in the well. For 10 point titrations, 3-fold serial dilutions are conducted from the starting concentration of the customer's choosing.
(§4) All Peptide/Kinase Mixtures are diluted to a 2× working concentration in the appropriate Kinase Buffer (see section Kinase Specific Assay Conditions for a complete description).
(§5) All ATP Solutions are diluted to a 4× working concentration in Kinase Buffer (50 mM HEPES pH 7.5, 0.01% BRIJ-35, 10 mM MgCl2, 1 mM EGTA). ATP Km apparent is previously determined using a Z″-LYTE assay.
(§6) The Development Reagent is diluted in Development Buffer (see section Kinase-Specific Assay Conditions—Direct and Cascade for a complete description).
(§7) Bar-coded Corning, low volume NBS, black 384-well plate (Corning Cat. #4514) • 1. 100 nL—100× Test Compound in 100% DMSO • 2. 2.4 μL—Kinase buffer • 3. 5 μL—2× Peptide/Kinase Mixture • 4. 2.5 μL—4×ATP Solution • 5. 30—second plate shake • 6. 60—minute Kinase Reaction incubation at room temperature • 7. 5 μL—Development Reagent Solution • 8. 30—second plate shake • 9. 60—minute Development Reaction incubation at room temperature • 10. Read on fluorescence plate reader and analyze the data Z′-LYTE Assay Controls
(§8) SelectScreen Kinase Profiling Service uses XLfit from IDBS. The dose response curve is curve fit to model number 205 (sigmoidal dose-response model).
(§9) The 2×RET/Tyr 02 mixture is prepared in 50 mM HEPES pH 7.5, 0.01% BRIJ-35, 10 mM MgCl2, 1 mM EGTA. The final 10 μL Kinase Reaction consists of 0.49-3.64 ng RET and 2 μM Tyr 02 in 50 mM HEPES pH 7.5, 0.01% BRIJ-35, 10 mM MgCl2, 1 mM EGTA. After the 1 hour Kinase Reaction incubation, 5 μL of a 1:128 dilution of Development Reagent A is added.

Aβ42 production = experiment: Inhibition of Aβ42 production in H4 neuroglioma cells stably expressing human APP695 (MSD electrochemiluminescence); type: cell-based
Description: (§10) Cells were plated out to near confluency. The compounds to be tested were received as 10 mM stocks in 100% DMSO. A dilution series was initially generated in 100% DMSO and then diluted 200-fold in cell culture media such that the tested concentration range was 30 μM to 0.1 nM and the final DMSO concentration was 0.5%. The diluted compounds were incubated with the cells for 22 hours in an incubator at 37° C. and 5% CO2. Aβ42 levels were measured post-incubation from the supernatant of the cells using an Aβ42 specific electrochemiluminescence assay provided by Meso Scale Discovery (Catalog #L21CA-1). The measurement of Aβ42 levels were performed according to the manufacturer's protocol.

Aβ total = Aβ total levels in H4 neuroglioma cells stably expressing human APP695 (MSD electrochemiluminescence); type: cell-based; conditions: selectivity ratio vs. Aβtotal
Description: as §10
Aβ total levels were likewise determined using a specific electrochemiluminescence assay provided by Meso Scale Discovery (Catalog #L21ZA-1) according to the manufacturer's protocol.

RPS6KB1 (p70S6K) = RPS6KB1 (p70S6K) (Homo sapiens, UniProt P23443); experiment: Z'-LYTE SelectScreen biochemical kinase assay RPS6KB1 (p70S6K)
Text: as §1, §2, §3, §4, §5, §6, §7, §8
as §9, with “2×RPS6 KB1 (p70S6K)/Ser/Thr 07” for “2×RET/Tyr 02”, “2.87-17.7” for “0.49-3.64”, “RPS6 KB1 (p70S6K)” for “RET”, “Ser/Thr 07” for “Tyr 02”, “1:45000” for “1:128”

FGFR1 = FGFR1 (Homo sapiens, UniProt P11362); experiment: Z'-LYTE SelectScreen biochemical kinase assay FGFR1
Text: as §1, §2, §3, §4, §5, §6, §7, §8
The 2×FGFR1/Tyr 04 mixture is prepared in 50 mM HEPES pH 7.5, 0.01% BRIJ-35, 10 mM MgCl2, 4 mM MnCl2, 1 mM EGTA, 2 mM DTT. The final 10 μL Kinase Reaction consists of 0.44-2.45 ng FGFR1 and 2 μM Tyr 04 in 50 mM HEPES pH 7.5, 0.01% BRIJ-35, 10 mM MgCl2, 2 mM MnCl2, 1 mM EGTA, 1 mM DTT. After the 1 hour Kinase Reaction incubation, 5 μL of a 1:64 dilution of Development Reagent B is added.

[1] = 10 μmolar compound concentration, ATP at Km app, read-out: RET inhibition
[2] = read-out: % Inhibition mean RET
[3] = H4 neuroglioma cells expressing human APP695, 22 hours incubation, Table 4a
[4] = 10 μmolar compound concentration, ATP at Km app, read-out: RPS6KB1 (p70S6K) inhibition
[5] = read-out: % Inhibition mean RPS6KB1 (p70S6K)
[6] = 10 μmolar compound concentration, ATP at Km app, read-out: FGFR1 inhibition
[7] = read-out: % Inhibition mean FGFR1

FGFR1, sequence (P11362 22-822): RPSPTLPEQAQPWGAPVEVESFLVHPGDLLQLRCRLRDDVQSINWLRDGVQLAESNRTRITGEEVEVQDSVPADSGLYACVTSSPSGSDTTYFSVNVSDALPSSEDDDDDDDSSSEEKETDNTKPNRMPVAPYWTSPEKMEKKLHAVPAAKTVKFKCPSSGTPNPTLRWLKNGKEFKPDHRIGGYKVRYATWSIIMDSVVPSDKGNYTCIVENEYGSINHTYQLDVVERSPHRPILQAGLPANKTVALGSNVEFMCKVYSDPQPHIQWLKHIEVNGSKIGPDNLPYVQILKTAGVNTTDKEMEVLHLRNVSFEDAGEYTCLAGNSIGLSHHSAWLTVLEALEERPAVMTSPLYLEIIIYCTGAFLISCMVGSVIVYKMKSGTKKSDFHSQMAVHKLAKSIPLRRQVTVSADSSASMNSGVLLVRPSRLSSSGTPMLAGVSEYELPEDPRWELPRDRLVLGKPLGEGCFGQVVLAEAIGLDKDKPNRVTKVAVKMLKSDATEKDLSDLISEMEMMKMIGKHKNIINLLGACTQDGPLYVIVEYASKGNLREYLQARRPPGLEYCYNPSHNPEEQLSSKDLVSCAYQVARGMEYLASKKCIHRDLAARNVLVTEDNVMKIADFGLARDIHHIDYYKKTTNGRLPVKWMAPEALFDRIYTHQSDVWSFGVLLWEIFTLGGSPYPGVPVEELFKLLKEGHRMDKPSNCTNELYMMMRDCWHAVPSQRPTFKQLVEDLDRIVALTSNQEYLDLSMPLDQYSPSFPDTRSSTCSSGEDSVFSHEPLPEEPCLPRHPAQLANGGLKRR
RET, sequence (P07949 29-1114): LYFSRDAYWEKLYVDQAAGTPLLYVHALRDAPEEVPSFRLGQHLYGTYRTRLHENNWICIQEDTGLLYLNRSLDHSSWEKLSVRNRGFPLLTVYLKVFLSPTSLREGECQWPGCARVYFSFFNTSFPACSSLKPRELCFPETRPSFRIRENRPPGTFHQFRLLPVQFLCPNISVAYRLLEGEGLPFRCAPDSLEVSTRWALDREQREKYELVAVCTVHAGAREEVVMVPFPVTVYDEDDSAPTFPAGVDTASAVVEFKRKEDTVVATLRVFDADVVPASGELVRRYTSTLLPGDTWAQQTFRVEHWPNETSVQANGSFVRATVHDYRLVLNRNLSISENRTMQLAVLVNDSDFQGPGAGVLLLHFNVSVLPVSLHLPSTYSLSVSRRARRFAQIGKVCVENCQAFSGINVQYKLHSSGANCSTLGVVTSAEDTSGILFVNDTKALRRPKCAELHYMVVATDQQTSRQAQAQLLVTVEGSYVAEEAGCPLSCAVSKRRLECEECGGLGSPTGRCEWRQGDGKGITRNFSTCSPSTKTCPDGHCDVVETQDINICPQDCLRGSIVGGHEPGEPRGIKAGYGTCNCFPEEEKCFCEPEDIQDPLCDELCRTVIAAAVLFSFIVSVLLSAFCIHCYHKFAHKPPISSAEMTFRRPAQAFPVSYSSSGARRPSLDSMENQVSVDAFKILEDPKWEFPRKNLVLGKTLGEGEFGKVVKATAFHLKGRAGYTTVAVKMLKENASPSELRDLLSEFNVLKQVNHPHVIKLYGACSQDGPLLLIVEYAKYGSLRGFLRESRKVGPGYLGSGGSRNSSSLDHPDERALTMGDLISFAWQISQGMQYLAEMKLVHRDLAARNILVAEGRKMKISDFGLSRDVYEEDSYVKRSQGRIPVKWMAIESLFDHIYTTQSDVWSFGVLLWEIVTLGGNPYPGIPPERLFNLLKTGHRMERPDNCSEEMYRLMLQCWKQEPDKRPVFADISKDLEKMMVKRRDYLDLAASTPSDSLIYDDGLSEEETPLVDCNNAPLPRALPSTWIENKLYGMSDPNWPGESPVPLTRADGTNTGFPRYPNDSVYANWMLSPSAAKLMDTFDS
RPS6KB1 (p70S6K), sequence (P23443 whole entry): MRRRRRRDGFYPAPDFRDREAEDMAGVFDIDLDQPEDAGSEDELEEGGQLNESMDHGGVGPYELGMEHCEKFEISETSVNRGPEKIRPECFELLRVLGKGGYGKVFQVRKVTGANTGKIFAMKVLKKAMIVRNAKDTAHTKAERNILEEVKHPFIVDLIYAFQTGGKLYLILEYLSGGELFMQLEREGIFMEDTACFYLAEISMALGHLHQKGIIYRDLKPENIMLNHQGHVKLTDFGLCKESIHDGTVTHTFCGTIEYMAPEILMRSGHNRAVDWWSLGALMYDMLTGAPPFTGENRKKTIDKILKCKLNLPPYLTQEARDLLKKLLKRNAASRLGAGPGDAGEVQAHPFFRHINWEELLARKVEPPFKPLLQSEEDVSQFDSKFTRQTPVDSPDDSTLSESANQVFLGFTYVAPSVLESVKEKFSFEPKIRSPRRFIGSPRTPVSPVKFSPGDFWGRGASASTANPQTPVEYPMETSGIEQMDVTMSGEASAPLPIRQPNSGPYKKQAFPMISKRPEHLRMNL

| SMILES | inhibition at 10 µM (RET; [1]) | inhibition at 10 µM (RET; [2]) | IC50 (Aβ42 production; [3]) | Ratio AβTotal IC50/Aβ42 IC50 (Aβ total; Table 4a) | inhibition at 10 µM (RPS6KB1 (p70S6K); [4]) | inhibition at 10 µM (RPS6KB1 (p70S6K); [5]) | inhibition at 10 µM (FGFR1; [6]) | inhibition at 10 µM (FGFR1; [7]) | inhibition at 10 µM (RET; read-out: % Inhibition mean) | IC50 (Aβ42 production; Homo sapiens, H4 neuroglioma cells, same assay as table 4a, prior art compounds, Table 4b) | modulation of γ-secretase (in words) (Aβ42 production; tables 4a/4b) | Ratio AβTotal IC50/Aβ42 IC50 (Aβ total; prior art compounds, Table 4b) | inhibition at 10 µM (RPS6KB1 (p70S6K); read-out: % Inhibition mean) | inhibition at 10 µM (FGFR1; read-out: % Inhibition mean) |
| --- | --- | --- | --- | --- | --- | --- | --- | --- | --- | --- | --- | --- | --- | --- |
| CCn1ncc2c1CCC(Nc1nc3c(-c4cnccc4OC)cccn3n1)C2 (stereo not drawn) [Example 68, (1-Ethyl-4,5,6,7-tetrahydro-1H-indazol-5-yl)-[8-(4-methoxy-pyridin-3-yl)-[1,2,4]triazolo[1,5-a]pyridine-2-yl]-amine] | < 40% | 28% | 120 nM | 241 | < 40% | 17% | < 40% | 23% | – | – | – | – | – | – |
| CCc1nn(C)c2c1CCC(Nc1nc3c(-c4ccc(F)cc4C)cccn3n1)C2 (stereo not drawn) [Example 54, (3-Ethyl-1-methyl-4,5,6,7-tetrahydro-1H-indazol-6-yl)-[8-(4-fluoro-2-methyl-phenyl)-[1,2,4]triazolo[1,5-a]pyridine-2-yl]-amine] | < 40% | 15% | 3130 nM | 10 | < 40% | 1% | < 40% | -3% | – | – | – | – | – | – |
| CCCCCn1ncc2c1CCC(Nc1nc3c(-c4ccc(F)cc4C)cccn3n1)C2 (stereo not drawn) [Example 47, [8-(4-fluoro-2-methyl-phenyl)-[1,2,4]triazolo[1,5-a]pyridine-2-yl]-(1-pentyl-4,5,6,7-tetrahydro-1H-indazol-5-yl)-amine] | < 40% | 23% | > 30000 nM | 1 | < 40% | 12% | < 40% | 21% | – | – | – | – | – | – |
| CCn1ncc2c1C(C)CC(Nc1nc3c(-c4cc(F)c(F)c(F)c4)cccn3n1)C2 (stereo not drawn) [Example 49, (1-Ethyl-7-methyl-4,5,6,7-tetrahydro-1H-indazol-5-yl)-[8-(3,4,5-trifluoro-phenyl)-[1,2,4]triazolo[1,5-a]pyridine-2-yl]-amine] | < 40% | 22% | 950 nM | 15 | < 40% | 33% | < 40% | 9% | – | – | – | – | – | – |
| Fc1cccc(-c2cccn3nc(Nc4ccc5[nH]cnc5c4)nc23)c1 [Cpd. 293 in WO09155551, reference compound] | > 80% | – | – | – | > 80% | – | > 80% | – | 94% | 7000 nM | do not show any modulation | 1 | 85% | 93% |
| Cc1cc(F)ccc1-c1cccn2nc(NC3CCc4cnn(C)c4C3)nc12 (stereo not drawn) [Example 40, [8-(4-Fluoro-2-methyl-phenyl)-[1,2,4]triazolo[1,5-a]pyridine-2-yl]-(1-methyl-4,5,6,7-tetrahydro-1H-indazol-6-yl)-amine] | < 40% | 18% | > 30000 nM | 1 | < 40% | 19% | < 40% | 27% | – | – | – | – | – | – |
| CCn1ncc2c1CCC(Nc1nc3c(-c4ccc(F)cc4C)cccn3n1)C2 (stereo not drawn) [Example 42, (1-Ethyl-4,5,6,7-tetrahydro-1H-indazol-5-yl)-[8-(4-fluoro-2-methyl-phenyl)-[1,2,4]triazolo[1,5-a]pyridine-2-yl]-amine] | < 40% | 29% | 70 nM | 23 | < 40% | 6% | < 40% | 16% | – | – | – | – | – | – |
| CCn1ncc2c1CCC(Nc1nc3c(-c4ccccc4)cccn3n1)C2 (stereo not drawn) [Example 57, (1-Ethyl-4,5,6,7-tetrahydro-1H-indazol-5-yl)-(8-phenyl-[1,2,4]triazolo[1,5-a]pyridine-2-yl)-amine] | < 40% | – | 70 nM | 104 | < 40% | – | < 40% | 23% | – | – | – | – | – | – |
| CCn1ncc2c1CCC(Nc1nc3c(-c4cccnc4)cccn3n1)C2 (stereo not drawn) [Example 63, (1-Ethyl-4,5,6,7-tetrahydro-1H-indazol-5-yl)-(8-pyridin-3-yl-[1,2,4]triazolo[1,5-a]pyridine-2-yl)-amine] | < 40% | 20% | 350 nM | 85 | < 40% | 3% | < 40% | 18% | – | – | – | – | – | – |
| CCn1ncc2c1CCC(Nc1nc3c(-c4cccc(Cl)c4)cccn3n1)C2 (stereo not drawn) [Example 59, [8-(3-Chloro-phenyl)-[1,2,4]triazolo[1,5-a]pyridine-2-yl]-(1-ethyl-4,5,6,7-tetrahydro-1H-indazol-5-yl)-amine] | < 40% | 29% | 40 nM | 49 | < 40% | 6% | < 40% | 22% | – | – | – | – | – | – |
| CCn1ncc2c1CCC(Nc1nc3c(-c4ccc(F)cc4)cccn3n1)C2 (stereo not drawn) [Example 55, (1-Ethyl-4,5,6,7-tetrahydro-1H-indazol-5-yl)-[8-(4-fluoro-phenyl)-[1,2,4]triazolo[1,5-a]pyridine-2-yl]-amine] | < 40% | 21% | 180 nM | 120 | < 40% | 11% | < 40% | 12% | – | – | – | – | – | – |
